By IC50 is commonly meant the point on the concentration scale where inhibition reaches its midpoint. The term EC50 denotes the concentration that produces a half-maximal response.

Experimental findings from patent publication US20220213092A1, “BICYCLIC PYRAZOLE BRUTON'S TYROSINE KINASE INHIBITORS” (AbbVie Inc., priority 2020, published 2022) are described below.

Each structure is given as a SMILES string.

One experiment has as its target T1, BTK (Homo sapiens, UniProt Q06187).
T1 construct: purchased Nanosyn, Santa Clara, Calif; host or cells: 293HEK
Nature of the experiment: BTK kinase electrophoretic mobility shift assay (MSA). To be noted: 50 μM ATP, 0.5 nM BTK enzyme (Nanosyn-293HEK, WT), 3 hours at 25° C.; all examples except 50, 51, 62 and 63; read-out: BTK IC50. The experiment is classed as biochemical.

The target in experiment [1] is T2, Phosphorylation of Y223 of BTK (Homo sapiens, UniProt Q06187).
T2 construct: host or cells: healthy human whole blood, 3 donors
T2 sequence (Q06187 whole entry): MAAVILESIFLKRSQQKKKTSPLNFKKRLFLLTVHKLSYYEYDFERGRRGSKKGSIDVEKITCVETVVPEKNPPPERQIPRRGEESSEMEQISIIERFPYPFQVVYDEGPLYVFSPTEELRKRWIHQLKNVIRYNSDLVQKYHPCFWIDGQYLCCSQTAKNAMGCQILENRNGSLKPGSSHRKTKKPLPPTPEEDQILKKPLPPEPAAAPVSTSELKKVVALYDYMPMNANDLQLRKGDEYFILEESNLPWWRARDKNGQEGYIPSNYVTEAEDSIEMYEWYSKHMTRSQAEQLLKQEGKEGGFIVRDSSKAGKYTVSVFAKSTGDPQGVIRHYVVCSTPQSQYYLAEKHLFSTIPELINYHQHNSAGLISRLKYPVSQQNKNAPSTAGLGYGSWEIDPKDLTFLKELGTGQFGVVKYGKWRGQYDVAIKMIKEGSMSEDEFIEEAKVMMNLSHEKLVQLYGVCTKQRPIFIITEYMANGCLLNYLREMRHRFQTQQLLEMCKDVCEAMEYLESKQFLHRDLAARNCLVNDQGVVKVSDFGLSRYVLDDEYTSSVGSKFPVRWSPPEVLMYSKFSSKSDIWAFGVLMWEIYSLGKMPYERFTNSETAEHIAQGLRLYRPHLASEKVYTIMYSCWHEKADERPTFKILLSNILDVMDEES
Nature of the experiment: Whole blood compound screening, phosphorylation of Y223 site of BTK (MSD assay). The experiment is classed as cell-based. As to conditions: healthy human whole blood, 2 hours at 37° C., 3 separate donors; read-out: WB BTK-pY223 EC50. Here is the method: Healthy human whole blood (WB) was collected from […]™ Technologies or […]® in sodium heparinized tubes. Whole blood was stored at ambient temperature to avoid coagulation. Each compound was tested in 3 separate donors. Compound stock solutions (10 mM) were used to generate dose titration (8 concentrations, starting concentration 10 μM, 1:4 dilution) in appropriate volume of dimethyl sulfoxide (0.2%). Whole blood was incubated with compounds in 96-well plates for 2 hours in tissue culture incubators at 37° C. under a 5% CO2 atmosphere. The whole blood was lysed in equal volume of lysis buffer (Cell Signaling Technology®, Danvers, Mass.) containing complete protease inhibitor tablet, PhosSTOP™ tablet, sodium orthovanadate and sodium fluoride and phenylmethanesulfonyl fluoride solution. The lysed whole blood was then frozen at −80° C. for overnight.
Phosphorylation of Y223 of BTK was measured using an MSD assay (Meso Scale Diagnostics, LLC, Rockville, Md.). The thawed lysed whole blood was incubated with the capturing antibody rabbit anti-human BTK (D3H5) (Cell Signaling Technology, Danvers, Mass.) at 4° C. overnight. After washing out the unbound samples, the detection antibody biotinylated rabbit anti-pY223-BTK(D9T6H) (Cell Signaling Technology®, Danvers, Mass.) was added to the plates. After washing out the unbound antibodies, SULFO-TAG Streptavidin (Meso Scale Diagnostics, LLC, Rockville, Md.) was used for detection on Meso Sector S600 (Meso Scale Diagnostics, LLC, Rockville, Md.).
The EC50 values were determined using software from Dotmatics. The activity of exemplary compounds is illustrated below.

T1 sequence (Q06187 whole entry): as above

For the molecule `C=CC(=O)N1CCN([C@@H]2CCNc3c2nn(-c2ccc(Oc4cccc(F)c4)cc2)c3C(N)=O)CC1` [Example 67, (7R)-2-[4-(3-fluorophenoxy)phenyl]-7-[4-(prop-2-enoyl)piperazin-1-yl]-4,5,6,7-tetrahydro-2H-pyrazolo[4,3-b]pyridine-3-carboxamide], the IC50 on BTK was 0.000737 µM. For the same molecule, the EC50 in experiment [1] was 0.0188 µM.
With `C=CC(=O)N1CCN([C@@H]2CCNc3c2nn(-c2ccc(Oc4ccccc4C4CC4)cc2)c3C(N)=O)CC1` [Example 68, (7R)-2-[4-(2-cyclopropylphenoxy)phenyl]-7-[4-(prop-2-enoyl)piperazin-1-yl]-4,5,6,7-tetrahydro-2H-pyrazolo[4,3-b]pyridine-3-carboxamide], the half-inhibitory concentration (IC50) at BTK stood at 0.00318 µM. The concentration for a half-maximal effect (EC50) in experiment [1] stood at 0.0962 µM.
Taken in the same sequence, the figures for `C=CC(=O)N1CCN([C@@H]2CCNc3c2nn(-c2ccc(Oc4ccccc4C#N)cc2)c3C(N)=O)CC1` [Example 69, (7R)-2-[4-(2-cyanophenoxy)phenyl]-7-[4-(prop-2-enoyl)piperazin-1-yl]-4,5,6,7-tetrahydro-2H-pyrazolo[4,3-b]pyridine-3-carboxamide] were 0.00218 µM and 0.0292 µM.
On to `C=CC(=O)N1CCN([C@@H]2CCNc3c2nn(-c2ccc(Oc4ccc(F)cc4F)cc2)c3C(N)=O)CC1` [Example 70, (7R)-2-[4-(2,4-difluorophenoxy)phenyl]-7-[4-(prop-2-enoyl)piperazin-1-yl]-4,5,6,7-tetrahydro-2H-pyrazolo[4,3-b]pyridine-3-carboxamide], for which, on BTK, the IC50 turned out to be 0.00709 µM. Further, the EC50 in experiment [1] is 0.239 µM.
With `C=CC(=O)N1CCN([C@@H]2CCNc3c2nn(-c2ccc(Oc4ccc(F)cc4)cc2)c3C(N)=O)CC1` [Example 71, (7R)-2-[4-(4-fluorophenoxy)phenyl]-7-[4-(prop-2-enoyl)piperazin-1-yl]-4,5,6,7-tetrahydro-2H-pyrazolo[4,3-b]pyridine-3-carboxamide], the IC50 at BTK was 0.0228 µM. In experiment [1], the EC50 came out at 0.279 µM.
Taken in the same sequence, the figures for `C=CC(=O)N1C2CC1CN([C@H]1CCNc3c1nn(-c1ccc(Oc4ccccc4)cc1)c3C(N)=O)C2` [Example 72, (7S)-2-(4-phenoxyphenyl)-7-[6-(prop-2-enoyl)-3,6-diazabicyclo[3.1.1]heptan-3-yl]-4,5,6,7-tetrahydro-2H-pyrazolo[4,3-b]pyridine-3-carboxamide] were 0.00784 µM and 0.0217 µM.
Take `C=CC(=O)N1C2CC1CN([C@@H]1CCNc3c1nn(-c1ccc(Oc4ccccc4)cc1)c3C(N)=O)C2` [Example 73, (7R)-2-(4-phenoxyphenyl)-7-[6-(prop-2-enoyl)-3,6-diazabicyclo[3.1.1]heptan-3-yl]-4,5,6,7-tetrahydro-2H-pyrazolo[4,3-b]pyridine-3-carboxamide]: on BTK, the IC50 turned out to be 0.0157 µM. Further, the concentration giving a half-maximal response (EC50) in experiment [1] is 0.255 µM.
With `C=CC(=O)N1CCN([C@@H]2CCNc3c2nn(-c2ccc(Oc4cc(F)ccc4F)cc2)c3C(N)=O)CC1` [Example 74, (7R)-2-[4-(2,5-difluorophenoxy)phenyl]-7-[4-(prop-2-enoyl)piperazin-1-yl]-4,5,6,7-tetrahydro-2H-pyrazolo[4,3-b]pyridine-3-carboxamide], the IC50 at BTK was found to be 0.00151 µM. The EC50 in experiment [1] worked out at 0.056 µM.
As for `C=CC(=O)N1CC(N2CCNc3c2nn(-c2ccc(Oc4ccccc4F)cc2)c3C(N)=O)C1` [Example 75, 2-[4-(2-fluorophenoxy)phenyl]-7-[1-(prop-2-enoyl)azetidin-3-yl]-4,5,6,7-tetrahydro-2H-pyrazolo[3,4-b]pyrazine-3-carboxamide], the IC50 at BTK came to 0.00114 µM. The EC50 in experiment [1] came to 0.061 µM.
The corresponding values for `C=CC(=O)N1CC(N2CCNc3c2nn(-c2ccc(Oc4cccc(F)c4F)cc2)c3C(N)=O)C1` [Example 76, 2-[4-(2,3-difluorophenoxy)phenyl]-7-[1-(prop-2-enoyl)azetidin-3-yl]-4,5,6,7-tetrahydro-2H-pyrazolo[3,4-b]pyrazine-3-carboxamide] are 0.000968 µM and 0.0855 µM.
On to `C=CC(=O)N1CCN([C@@H]2CCNc3c2nn(-c2ccc(Oc4cccc(F)c4F)cc2)c3C(N)=O)CC1` [Example 77, (7R)-2-[4-(2,3-difluorophenoxy)phenyl]-7-[4-(prop-2-enoyl)piperazin-1-yl]-4,5,6,7-tetrahydro-2H-pyrazolo[4,3-b]pyridine-3-carboxamide], for which the IC50 at BTK turned out to be 0.000533 µM. For the same molecule, the EC50 in experiment [1] stood at 0.0315 µM.
With `C=CC(=O)N1CCN([C@@H]2CCNc3c2nn(-c2ccc(Oc4cccc(C5CC5)c4)cc2)c3C(N)=O)CC1` [Example 78, (7R)-2-[4-(3-cyclopropylphenoxy)phenyl]-7-[4-(prop-2-enoyl)piperazin-1-yl]-4,5,6,7-tetrahydro-2H-pyrazolo[4,3-b]pyridine-3-carboxamide], the IC50 on BTK was 0.000671 µM. For the same molecule, the EC50 in experiment [1] is 0.0579 µM.
The corresponding values for `C=CC(=O)N1CC(N2CCNc3c2nn(-c2ccc(Oc4ccc(F)cc4F)cc2)c3C(N)=O)C1` [Example 81, 2-[4-(2,4-difluorophenoxy)phenyl]-7-[1-(prop-2-enoyl)azetidin-3-yl]-4,5,6,7-tetrahydro-2H-pyrazolo[3,4-b]pyrazine-3-carboxamide] are 0.00524 µM and 0.0751 µM.
`C=CC(=O)N1CCN([C@@H]2CCNc3c2nn(-c2ccc(Oc4ccccc4)cc2)c3C(N)=O)CC12CC2` [Example 82, (7R)-2-(4-phenoxyphenyl)-7-[4-(prop-2-enoyl)-4,7-diazaspiro[2.5]octan-7-yl]-4,5,6,7-tetrahydro-2H-pyrazolo[4,3-b]pyridine-3-carboxamide]: at BTK, the IC50 is 0.000515 µM. The concentration for a half-maximal effect (EC50) in experiment [1] was determined as 0.0441 µM.
As to `C=CC(=O)N1CCN([C@H]2CCNc3c2nn(-c2ccc(Oc4ccccc4)cc2)c3C(N)=O)CC12CC2` [Example 83, (7S)-2-(4-phenoxyphenyl)-7-[4-(prop-2-enoyl)-4,7-diazaspiro[2.5]octan-7-yl]-4,5,6,7-tetrahydro-2H-pyrazolo[4,3-b]pyridine-3-carboxamide], the concentration for half-maximal inhibition (IC50) at BTK came out at 0.0666 µM. For the same molecule, the EC50 in experiment [1] was 1.73 µM.
In the case of `C=CC(=O)N1CCC(O)(C2CCNc3c2nn(-c2ccc(Oc4ccccc4)cc2)c3C(N)=O)CC1` (centres unmarked) [Example 84, 7-[4-hydroxy-1-(prop-2-enoyl)piperidin-4-yl]-2-(4-phenoxyphenyl)-4,5,6,7-tetrahydro-2H-pyrazolo[4,3-b]pyridine-3-carboxamide], the concentration for half-maximal inhibition (IC50) on BTK was 0.0014 µM. The 50% effective concentration (EC50) in experiment [1] worked out at 0.0456 µM.
As to `C=CC(=O)N1CCN([C@@H]2CCNc3c2nn(-c2ccc(Oc4ccc(OC(F)(F)F)cc4)cc2)c3C(N)=O)CC1` [Example 85, (7R)-7-[4-(prop-2-enoyl)piperazin-1-yl]-2-{4-[4-(trifluoromethoxy)phenoxy]phenyl}-4,5,6,7-tetrahydro-2H-pyrazolo[4,3-b]pyridine-3-carboxamide], the IC50 on BTK turned out to be 0.107 µM. For the same molecule, in experiment [1], the EC50 worked out at 2.03 µM.
As to `C=CC(=O)N1CCN([C@@H]2CCNc3c2nn(-c2ccc(Oc4ccccc4C)cc2)c3C(N)=O)CC1` [Example 86, (7R)-2-[4-(2-methylphenoxy)phenyl]-7-[4-(prop-2-enoyl)piperazin-1-yl]-4,5,6,7-tetrahydro-2H-pyrazolo[4,3-b]pyridine-3-carboxamide], the IC50 on BTK was 0.000706 µM. The concentration giving a half-maximal response (EC50) in experiment [1] is 0.315 µM.
As for `C=CC(=O)N1CCN([C@@H]2CCNc3c2nn(-c2ccc(Oc4ccc(OC)cc4)cc2)c3C(N)=O)CC1` [Example 87, (7R)-2-[4-(4-methoxyphenoxy)phenyl]-7-[4-(prop-2-enoyl)piperazin-1-yl]-4,5,6,7-tetrahydro-2H-pyrazolo[4,3-b]pyridine-3-carboxamide], the IC50 at BTK is 0.00332 µM. In addition, in experiment [1], the EC50 is 0.162 µM.
As for `C=CC(=O)N1CCN([C@@H]2CCNc3c2nn(-c2ccc(Oc4cccc(C)c4)cc2)c3C(N)=O)CC1` [Example 88, (7R)-2-[4-(3-methylphenoxy)phenyl]-7-[4-(prop-2-enoyl)piperazin-1-yl]-4,5,6,7-tetrahydro-2H-pyrazolo[4,3-b]pyridine-3-carboxamide], on BTK, the half-inhibitory concentration (IC50) was determined as 0.000797 µM. In experiment [1], the half-maximal effective concentration (EC50) came to 0.225 µM.
Take `C=CC(=O)N1CCN([C@@H]2CCNc3c2nn(-c2ccc(Oc4cccc(OC(F)(F)F)c4)cc2)c3C(N)=O)CC1` [Example 89, (7R)-7-[4-(prop-2-enoyl)piperazin-1-yl]-2-{4-[3-(trifluoromethoxy)phenoxy]phenyl}-4,5,6,7-tetrahydro-2H-pyrazolo[4,3-b]pyridine-3-carboxamide]: the IC50 at BTK worked out at 0.00175 µM. In addition, the EC50 in experiment [1] was 0.525 µM.
`C=CC(=O)N1CCN([C@@H]2CCNc3c2nn(-c2ccc(Oc4ccccc4OC(F)(F)F)cc2)c3C(N)=O)CC1` [Example 90, (7R)-7-[4-(prop-2-enoyl)piperazin-1-yl]-2-{4-[2-(trifluoromethoxy)phenoxy]phenyl}-4,5,6,7-tetrahydro-2H-pyrazolo[4,3-b]pyridine-3-carboxamide]: the half-inhibitory concentration (IC50) on BTK was 0.00129 µM. In addition, in experiment [1], the EC50 is 0.933 µM.
